From US6406853B1, “Interventions to mimic the effects of calorie restriction” (The Regents of the University of California, priority 1999, dated 2002)
Entries after “also recorded” stand apart in the source; their conditions may differ. Like-named read-outs stand apart in the source and are kept apart here.

Tests used:
GRP78 mRNA = experiment: Hepatic GRP78 mRNA in fasted and refed mice (dot-blot); assay type: in vivo; settings: liver; for GRP78 mRNA response to feeding (refed mice): fasted 48 h, i.p. injection 30 min before and 30 min after feeding, killed 1.5 h after feeding, dibutyryl-cAMP given with theophylline; for GRP78 mRNA in fasted mice: mice fasted 48 h, two i.p. injections; for postprandial induction of GRP78 mRNA in STZ-diabetic mice: STZ-induced diabetes combined with dibutyryl-cAMP and theophylline
Description: (§1) Retired male Swiss-Webster breeder mice were purchased from Jackson Laboratories. Beginning 30 days before the studies, the mice were fed Monday and Wednesday 11 g and Friday 16.6 g of the control diet daily at 0900 h. In fasting-feeding studies, mice were deprived of food for 48 h, fed 5.5 g of the control diet at 0900 h, and killed 90 min later. The food was consumed within 30 min. Diabetes was induced by three weekly intraperitoneal injections of streptozotocin [10 mg/100 g body weight (b.w.)] in 50 mM sodium citrate, pH 4.5. Mice were diabetic one week after the last injection. Only mice with blood glucose level higher than 3 mg/ml were used. Mice injected with equivalent volumes of sodium citrate served as controls for the STZ-diabetic mice. Adrenalectomized and sham-operated mice were purchased from Jackson Laboratories. Dibutyryl cAMP (Sigma; 18 mg.100 g b.w.), and theophylline (Sigma; 3 mg/100 g b.w), glucagon (Sigma; 300 μg/100 g b.w.), dexamethasone (Sigma; 125 μg/100 g b.w), cycloheximide (Sigma; 4 mg.100 g b.w.), and puromycin (Sigma; 10 mg.100 g b.w.), were administered intraperitonealy to mice as specified in the figure legends. Mice received two doses of each drug or drug combination. The first injection was administered 30 min before feeding, and the second injection was administered 30 min after feeding. Mice were killed 1.5 h after the start of feeding. Drug-injected mice consumed similar amounts of food as control animals during the feeding period. All animal use protocols were approved by the institutional animal use committee of the University of California, Riverside.
Mice were killed and the livers, kidneys, and muscle were removed. Muscle from the hind legs and back was removed and pooled for each animal. Tissues were flash frozen in liquid nitrogen. Approximately 0.2 g of frozen tissue was homogenized for 40 s in 4 ml of TRI Reagent (Molecular Research Center, Cincinnati, Ohio) using a Tekmar Tissuemizer (Tekmar, Cincinnait, Ohio) at a setting of 55. RNA was isolated as described by the TRI Reagent supplier. RNA was resuspended in FORMAzol (Molecular Research Center) and Northern and dot blots were performed using 20 and 10 μg of RNA respectively. The RNA was analyzed using Northern blots to verify its integrity. Dot blots were used to quantify mRNA levels (24; 27). Specific mRNA levels were normalized to the level of total RNA and/or mRNA present in each sample using hybridization with radiolabeled complementary DNA to 18S rRNA and/or transcription factor S-II, as indicated in the figure legends (12; 27). The murine ERp72 2.5 kb cDNA was excised with BamHI from pcD72-1 (19). The 1235 bp murine GRP75 coding fragment was excised with HindIII from pG7z-PBP1.8 (6). A 1.5 kb coding fragment of GRP78 cDNA was produced by digestion of p3C5 with EcoRI and PstI (15). A 1.4 kb hamster GRP94 coding fragment was produced by EcoRI and Sa/K digestion of p4A3 (15). A 664 bp coding fragment of rat calreticulin (nucleotides 148 to 812) was produced by PCR from GT10.U1 (23). The entire 2.4 kb cDNA of murine PDI was excised from pGEM59.4 with SacI and BamHII (19). A 1 kb coding fragment of hamster GRP170 cDNA was excised with EcoRI and XhoI from pCRtmII (16). The 1.9 kb cDNA of murine ERp57 was excised with HindIII and SstI from pERp61 (18). The 1 kb cDNA of murine HSC70 was excised with PstI from phsc1.5 (9). The 1.3 kb PEPCK coding fragment was produced by SphI followed by SalI digestions of pGEM5ZEP (a gift from Dr. Ganner D. K. Vanderbilt University School of Medicine, Nashville, Tenn.). The fragments were isolated by agarose gel electrophoresis and radioactively labeled using a ^T7QuickPrime Kit (Pharmacia) according to the manufacturer's instructions.

[1] = STZ-treated animals; general statement; cited from earlier work
hepatic gene expression = experiment: Global hepatic gene expression profile (GeneChip arrays, correlation coefficients); assay type: in vivo, mice
Description: GeneChip oligonucleotide-based high-density array RNA expression assays were performed according to the standard Affrymetrix protocol. The biotinylated, fragmented cRNA was hybridized to the Mu11KsubA and Mu11KsubB GeneChip arrays (Affymetrix, Santa Clara, Calif.), which contain targets for more than 11,000 known mouse genes and ESTs. The arrays were washed, stained and scanned. Scanned image analysis and data quantification were performed using the Affymetrix GeneChip analysis suite v3.2 at default parameter settings. Resultant data were normalized by global scaling.
Data analysis. Data sets were normalized furher using GeneSpring 3.0 (Silicon Genetics, San Carlos, Calif.). Negative expression levels were forced to zero, and the expression data for each animal divided by the median of all experimental values for that chip above an expression level of 10. This step reduced cliip-to-chip signal variation. Fold change in expression was calculated by dividing the mean of the expression levels in the CR groups by the mean of the expression levels in the control group.

Life span of mice = assay type: in vivo; settings: mice fed aminoguanidine
PEPCK mRNA = experiment: Hepatic PEPCK mRNA in fasted and refed mice (positive control); assay type: in vivo; settings: liver; mice fasted 48 h or refed
Description: as §1, with “The first injection was administered 30 min before feeding, and the second injection was administered 30 min after feeding. Mice were killed 1.5 h after the start of feeding. Drug-injected mice consumed similar amounts of food as control animals during the feeding period. All animal use protocols were approved by the institutional animal use committee of the University of California, Riverside.” left out
Mice were killed and the livers, kidneys, and muscle were removed. […] The RNA was analyzed using Northern blots to verify its integrity. Dot blots were used to quantify mRNA levels (24; 27). […]

In the case of `CN(N=O)C(=O)N[C@H]1C(O)O[C@H](CO)[C@@H](O)[C@@H]1O` (mixture of isomers) [STZ, streptozotocin], the “GRP78 mRNA response to feeding (refed mice)” value (“GRP78 mRNA response to feeding” for short) (GRP78 mRNA) is given as “blunted response; also recorded: significantly reduced”, the “GRP78 mRNA in fasted mice” value (GRP78 mRNA) is given as “did not modify” and the “effect on life span” value [1] is given as “shortens”. For the same compound, the “hepatic gene expression compared with young CR and young control mice” value (hepatic gene expression; STZ-diabetic mice, diabetic about 4 weeks) was “very different”.
For `N=C(N)NN` [aminoguanidine, Aminoguanidine], the “effect on life span” value (Life span of mice) was “little or no effect”, the “correlation of gene expression with old CR or old control mice” value (hepatic gene expression; mice fed aminoguanidine) was “did not correlate” and the “effect on hepatic gene expression” value (hepatic gene expression; mice fed aminoguanidine) was “large effect”.
For `COc1ccc(C[C@H](N)C(=O)N[C@H]2[C@@H](O)[C@H](n3cnc4c(N(C)C)ncnc43)O[C@@H]2CO)cc1` [puromycin], the “GRP78 mRNA response to feeding” value (GRP78 mRNA) was “fully induced” and the “GRP78 mRNA in fasted mice” value (GRP78 mRNA) was “modestly induced; also recorded: partial induction”.
For glucagon, the “GRP78 mRNA response to feeding” value (GRP78 mRNA) was “reduced the response; also recorded: blunted”.
For `C[C@@H]1C[C@@H]([C@H](O)CC2CC(=O)NC(=O)C2)C(=O)[C@@H](C)C1` [cycloheximide], the “PEPCK mRNA in both fasted and refed mice” value (PEPCK mRNA) was “increased”, the “GRP78 mRNA response to feeding” value (GRP78 mRNA) was “strongly induced” and the “GRP78 mRNA in fasted mice” value (GRP78 mRNA) was “strongly induced; also recorded: induced the mRNA to the same extent”.
With `CCCC(=O)Nc1ncnc2c1ncn2[C@@H]1O[C@@H]2COP(=O)(O)O[C@H]2[C@H]1OC(=O)CCC` [dibutyryl cAMP, Dibutyryl cAMP] the “postprandial induction of GRP78 mRNA in STZ-diabetic mice” value (GRP78 mRNA; listed as cAMP) was “obliterated”, the “postprandial induction of GRP78 mRNA in STZ-diabetic mice” value (GRP78 mRNA; listed as dibutyryl-cAMP) was “absence of a feeding response” and the “GRP78 mRNA response to feeding” value (GRP78 mRNA) was “reduced the response”. The “GRP78 mRNA response to feeding” value (GRP78 mRNA; listed as dibutyryl-cAMP) was “blunted”.
